Test results from US9550742B2, “11-OXO-10,11-dihydrodibenzo[B,F][1,4]thiazepine S-oxide derivatives and their use as dopamine D2 receptor antagonists” (The United States of America, as Represented by the …, priority 2013, dated 2017).

target: T1, D2 DAR (Homo sapiens, UniProt P14416); test: D2 Ca^2+ screen assay (calcium accumulation, HEK293 T-REx with Gqi5); format: cell-based; details: dopamine D2 calcium release assay of Example 1; read-out: Ca^2+ AC50
T1 construct: expressed in transfected cells; host or cells: HEK293 T-REx, Tet-inducible, with chimeric G-protein Gqi5
Description: The resting concentration of calcium ions (Ca^2+) in the cells' cytoplasm is normally maintained in the range of 10-100 nM. To maintain this low concentration, Ca^2+ is actively pumped from the cytosol to the extracellular space and into the endoplasmic reticulum (ER), and sometimes into the mitochondria. Signaling occurs when the cell is stimulated to release Ca^2+ from intracellular stores. The most common signaling pathway that increases cytoplasmic calcium concentration is the phospholipase C (PLC) pathway. […] IP3 diffuses to the ER, binds to its receptor (IP3 receptor), which is a Ca^2+ channel and, thus, releases Ca^2+ from the ER to the cytosol. To measure this cytosolic Ca^2+ accumulation, we used the Screen Quest™ Fluo-8 Calcium Assay Kit (AAT Bioquest, Sunnyvale, Calif.). Acetoxymethyl (AM) esters bound to Fluo-8™ dye are non-polar molecules that easily cross live cell membranes transporting the dye inside the cell, and are then rapidly hydrolyzed by cellular esterases inside live cells. As Fluo-8™ is freed from AM esters, it binds to Ca^2+ and emits a fluorescent signal at 514 nm that escalates with increasing cytosolic Ca^2±. To measure this calcium flux signal, we used the Functional Drug Screening System (FDSS) (Hamamatsu, Japan), a high throughput screening device that allows optical detection of signal transmissions within living cells in a time-resolving fashion. […] Quest Fluo-8™ calcium reagent was freshly prepared prior to adding to the cells (lyophilized Fluo-8™ dye provided with the kit was re-suspended in 200 μL DMSO as a 500× stock and stored at −20° C.). 2 μL/well of Quest Fluo-8™ calcium dye diluted in HBSS +10 mM HEPES buffer (for every 10 mL buffer, 1 mL of 10× quencher provided in the kit and 20 μL of 500×DMSO stock dye were added) was added to cells with a Multi-Drop Combi (ThermoScientific) and incubated for 45-90 min in the dark at ambient temperature. Then, the plates were introduced into the FDSS where they were pinned with 23 nL of test compound or dopamine controls and were read by FDSS in non-stimulated mode for 180 sec for detection of agonists. […]

T1 sequence (P14416 whole entry): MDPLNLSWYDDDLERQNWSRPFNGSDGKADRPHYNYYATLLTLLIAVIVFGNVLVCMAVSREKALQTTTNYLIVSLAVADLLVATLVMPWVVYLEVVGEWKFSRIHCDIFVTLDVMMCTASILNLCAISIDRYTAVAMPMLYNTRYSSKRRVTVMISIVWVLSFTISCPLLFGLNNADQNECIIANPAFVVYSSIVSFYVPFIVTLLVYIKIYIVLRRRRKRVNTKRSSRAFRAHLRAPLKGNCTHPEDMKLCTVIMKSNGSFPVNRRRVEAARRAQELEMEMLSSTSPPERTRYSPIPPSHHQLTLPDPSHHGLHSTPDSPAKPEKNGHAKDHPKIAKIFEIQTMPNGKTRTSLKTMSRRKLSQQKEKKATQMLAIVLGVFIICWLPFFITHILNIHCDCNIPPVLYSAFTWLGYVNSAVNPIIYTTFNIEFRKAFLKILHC

AC50, < 1000 nM:
CCN1C(=O)c2ccccc2[S+]([O-])c2ccc(C(=O)NCc3cccc(OC)c3)cc21 (stereo not drawn) [Compound 2, 10-Ethyl-N-(3-methoxybenzyl)-11-oxo-10,11-dihydrodibenzo[b,f][1,4]thiazepine-8-carboxamide 5-oxide]
CCN1C(=O)c2ccccc2[S+]([O-])c2ccc(C(=O)NCc3ccccc3)cc21 (stereo not drawn) [Compound 4, N-Benzyl-10-ethyl-11-oxo-10,11-dihydrodibenzo[b,f][1,4]thiazepine-8-carboxamide 5-oxide]
CCN1C(=O)c2ccccc2[S+]([O-])c2ccc(C(=O)NC(C)c3ccccc3)cc21 (stereo not drawn) [Compound 5, 10-Ethyl-11-oxo-N-(1-phenylethyl)-10,11-dihydrodibenzo[b,f][1,4]thiazepine-8-carboxamide 5-oxide]
CCN1C(=O)c2ccccc2[S+]([O-])c2ccc(C(=O)NCc3ccc(SC)cc3)cc21 (stereo not drawn) [Compound 6, 10-Ethyl-N-(4-(methylthio)benzyl)-11-oxo-10,11-dihydrodibenzo[b,f][1,4]thiazepine-8-carboxamide 5-oxide]
CCN1C(=O)c2ccccc2[S+]([O-])c2ccc(C(=O)NCc3ccc(C(C)(C)C)cc3)cc21 (stereo not drawn) [Compound 7, N-(4-tert-Butylbenzyl)-10-ethyl-11-oxo-10,11-dihydrodibenzo[b,f][1,4]thiazepine-8-carboxamide 5-oxide]
CCN1C(=O)c2ccccc2[S+]([O-])c2ccc(C(=O)NCc3ccc(C)cc3)cc21 (stereo not drawn) [Compound 8, 10-Ethyl-N-(4-methylbenzyl)-11-oxo-10,11-dihydrodibenzo[b,f][1,4]thiazepine-8-carboxamide 5-oxide]
CCN1C(=O)c2ccccc2[S+]([O-])c2ccc(C(=O)NCc3ccc(C(F)(F)F)cc3)cc21 (stereo not drawn) [Compound 9, 10-Ethyl-11-oxo-N-(4-(trifluoromethyl)benzyl)-10,11-dihydrodibenzo[b,f][1,4]thiazepine-8-carboxamide 5-oxide]
CCN1C(=O)c2ccccc2[S+]([O-])c2ccc(C(=O)NCc3ccc(F)cc3)cc21 (stereo not drawn) [Compound 10, 10-Ethyl-N-(4-fluorobenzyl)-11-oxo-10,11-dihydrodibenzo[b,f][1,4]thiazepine-8-carboxamide 5-oxide]
CCN1C(=O)c2ccccc2[S+]([O-])c2ccc(C(=O)NCc3ccc(Cl)cc3)cc21 (stereo not drawn) [Compound 11]
CCN1C(=O)c2ccccc2[S+]([O-])c2ccc(C(=O)NCc3ccc(C#N)cc3)cc21 (stereo not drawn) [Compound 12, N-(4-Cyanobenzyl)-10-ethyl-11-oxo-10,11-dihydrodibenzo[b,f][1,4]thiazepine-8-carboxamide 5-oxide]
CCN1C(=O)c2ccccc2[S+]([O-])c2ccc(C(=O)NCc3ccc(S(C)(=O)=O)cc3)cc21 (stereo not drawn) [Compound 13, 10-Ethyl-N-(4-(methylsulfonyl)benzyl)-11-oxo-10,11-dihydrodibenzo[b,f][1,4]thiazepine-8-carboxamide 5-oxide]
CCN1C(=O)c2ccccc2[S+]([O-])c2ccc(C(=O)NCc3ccc4c(c3)OCO4)cc21 (stereo not drawn) [Compound 15, N-(benzo[d][1,3]dioxol-5-ylmethyl)-10-ethyl-11-oxo-10,11dihydrodibenzo[b,f][1,4]thiazepine-8-carboxamide 5-oxide]
CCN1C(=O)c2ccccc2[S+]([O-])c2ccc(C(=O)Nc3ccccc3)cc21 (stereo not drawn) [Compound 16, 10-Ethyl-11-oxo-N-phenyl-10,11-dihydrodibenzo[b,f][1,4]thiazepine-8-carboxamide 5-oxide]
CCN1C(=O)c2ccccc2[S+]([O-])c2ccc(C(=O)Nc3ccc(OC)cc3)cc21 (stereo not drawn) [Compound 17, 10-Ethyl-N-(4-methoxyphenyl)-11-oxo-10,11-dihydrodibenzo[b,f][1,4]thiazepine-8-carboxamide 5-oxide]
CCN1C(=O)c2ccccc2[S+]([O-])c2ccc(C(=O)NCCc3ccc(OC)cc3)cc21 (stereo not drawn) [Compound 18, 10-Ethyl-N-(4-methoxyphenethyl)-11-oxo-10,11-dihydrodibenzo[b,f][1,4]thiazepine-8-carboxamide 5-oxide]
